From patent US10052297B2, “L-serine to be used as a drug for preventing and/or treating an inflammatory response of the skin” (PIERRE FABRE DERMO-COSMETIQUE, priority 2009, dated 2018)
Marks after values point to notes of the source that are not given here.

T1: PAR2 (Homo sapiens, UniProt P55085)
T1 construct: HaCaT cell line keratinocyte models were used; endogenous in cells; host or cells: HaCaT keratinocytes
T1 sequence (P55085 26-397): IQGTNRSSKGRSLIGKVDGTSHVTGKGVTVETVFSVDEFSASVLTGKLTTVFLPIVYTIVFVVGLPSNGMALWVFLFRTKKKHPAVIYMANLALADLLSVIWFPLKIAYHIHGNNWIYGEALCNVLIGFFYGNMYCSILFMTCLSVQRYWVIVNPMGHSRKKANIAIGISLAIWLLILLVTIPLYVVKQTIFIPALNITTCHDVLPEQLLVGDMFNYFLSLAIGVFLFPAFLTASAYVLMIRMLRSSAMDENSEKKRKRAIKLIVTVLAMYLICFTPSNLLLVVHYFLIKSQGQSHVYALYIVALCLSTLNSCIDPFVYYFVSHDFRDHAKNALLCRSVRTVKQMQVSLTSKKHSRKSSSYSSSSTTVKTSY

B1: STI: reference molecule, STI molecule (soybean trypsin inhibitor) at a concentration of 1 μM (protein, UniProt P01070 25-205, looked up)
Trypsin inhibitor A: DFVLDNEGNPLENGGTYYILSDITAFGGIRAAPTGNERCPLTVVQSRNELDKGIGTIISSPYRIRFIAEGHPLSLKFDSFAVIMLCVGIPTEWSVVEDLPEGPAVKIGENKDAMDGWFRLERVSDDEFNNYKLVFCPQQAEDDKCGDIGISIDHDDGTRRLVVSKNKPLVVQFQKLDKESL

How the values were obtained:
PAR2 = target: T1, PAR2; test: Inhibition of trypsin-induced calcium flow (PAR2 activation) in HaCaT keratinocytes, Fluo-4/AM fluorescence; format: cell-based; details: HaCaT cells, 10 nM trypsin stimulation; for inhibition at 3 µM / inhibition at 10 µM / inhibition at 30 µM / inhibition at 100 µM: 30 min incubation, read-out: Anti-PAR2 activity (percentage of inhibition); for Inhibition of PAR2 activation (result in words): 3-100 μM
Protocol: HaCaT cell line keratinocyte models were used. L-serine and L-asparagine were purchased from EVONIK, L-arginine was purchased from AMINO and L-valine was purchased from AJINOMOTO.
A fluorescent probe (Fluo-4/AM at a concentration of 2 μM) is incorporated for 30 minutes in cells inoculated in 96-well plates and the active agent to be tested is incubated for 30 minutes. Only the deesterified form of the probe bound to calcium ions is excitable under 485 nm fluorescence and emits at 535 nm. The incubation buffer used is HBSS buffer supplemented with HEPES (20 mM) and with water-soluble probenecid (2.5 mM).
The cells were stimulated with 10 nM trypsin.
The reference molecule used is a STI molecule (soybean trypsin inhibitor) at a concentration of 1 μM.
L-serine and L-asparagine, solubilized at 50 mg/ml in distilled water (475.8 mM for L-serine and 378.4 mM for L-asparagine) were evaluated at concentrations of 3 μM, 10 μM, 30 μM and 100 μM.
L-arginine was solubilized at 100 mM in distilled water.
L-valine was solubilized at 200 mM in distilled water.
Calcium flow, which represents PAR2 activation, is measured by fluorescence, well by well in real time according to kinetics before and after the injection of trypsin. The percentage of inhibition of PAR2 activation corresponds to the percentage of inhibition of calcium flow.

IL-8 secretion = test: Inhibition of IL-8 secretion stimulated by trypsin in HaCaT keratinocytes (sandwich ELISA); format: cell-based; details: Homo sapiens, 10 nM trypsin 24 h, n=2 experiments
Protocol: The test performed permitted to evaluate the anti-inflammatory activity of L-serine in terms of IL-8 secretion, stimulated by trypsin, on human keratinocytes from a cell line (HaCaT). Principle of the IL-8 Assay: Sandwich ELISA for Quantification of IL-8 Secreted in Culture Supernatants. IL-8 is captured by a monoclonal antibody bound to microplate wells. A second anti-IL-8 antibody is added. This antibody is biotinylated, which enabled the binding of streptavidin coupled with peroxidase activity. Adding the peroxidase substrate makes it possible to quantify the IL-8 concentration in each well by measuring absorbance at 450 nm. The HaCaT human keratinocyte cell line was used. A 96-well microplate for cell culture and a plate reader with injectors, Mithras LB940TM (Berthold Technologies®), were used. 10 nM trypsin was used as stimulation agent. Reagents from the Human CXCL8/IL8 DuoSet R&D System kit (ref. DY208(E)) were used. L-serine, solubilized at 475.8 mM in distilled water, was evaluated at concentrations of 3 μM, 10 μM, 30 μM, 100 μM, 300 μM and 1 mM. L-serine is incubated for 1 hour at 37° C. (HBSS buffer). The stimulation agent (trypsin […]) is then added and incubated for 24 hours at 37° C. The culture supernatants are recovered, centrifuged at +4° C. and then stored at -20° C. The IL-8 concentrations of the samples are calculated from a standard curve of the following equation: OD=(Bmax*[IL-8])/(Kd+[IL-8]) Next, the percentages of inhibition of IL-8 secretion are calculated according to the following formula: […]

Row | Molecule | inhibition at 3 µM (PAR2) | inhibition at 10 µM (PAR2) | inhibition at 30 µM (PAR2) | inhibition at 100 µM (PAR2) | Inhibition of PAR2 activation (result in words) (PAR2) | inhibition at 10 µM (IL-8 secretion; 10 μM) | inhibition at 30 µM (IL-8 secretion; 30 μM) | inhibition at 100 µM (IL-8 secretion; 100 μM) | inhibition at 1000 µM (IL-8 secretion; 1 mM) | Anti-PAR2 activity (percentage of inhibition) (PAR2; reference at 1 μM)
1 | N=C(N)NCCC[C@H](N)C(=O)O [L-arginine, reference compound] | -17% | 12% | -11% | 1% | does not significantly inhibit PAR2 activation |  |  |  |  | 
2 | NC(=O)CC(N)C(=O)O [L-asparagine, asparagine-amino-succinic acid] | 23% | 23% | 22% | 31% | inhibit PAR2 activation, but not in a dose-dependent manner |  |  |  |  | 
3 | NC(CO)C(=O)O [L-serine, 2-amino-3-hydroxypropanoic acid] | 3% | 13% | 20% | 33% | inhibit PAR2 activation in a dose-dependent manner | 47% | 50% | 66% | 74% | 
4 | CC(C)[C@H](N)C(=O)O [L-valine] | 6% | 26% | 20% | 34% | inhibit PAR2 activation |  |  |  |  | 
5 | B1 |  |  |  |  |  |  |  |  |  | 106-109%***
